Experimental findings from patent US7550451B2, “Progesterone receptor modulators with increased antigonadotropic activity for female birth control and hormone replacement therapy” (Bayer Schering Pharma AG, priority 2002, dated 2009) are described below.

Experiment [1] has as its target T1, Androgen receptor (Rattus norvegicus, UniProt P15207).
T1 construct: Prostate cytosol of the castrated rat; from tissue; host or cells: prostate cytosol of castrated rat
T1 sequence (P15207 1-902): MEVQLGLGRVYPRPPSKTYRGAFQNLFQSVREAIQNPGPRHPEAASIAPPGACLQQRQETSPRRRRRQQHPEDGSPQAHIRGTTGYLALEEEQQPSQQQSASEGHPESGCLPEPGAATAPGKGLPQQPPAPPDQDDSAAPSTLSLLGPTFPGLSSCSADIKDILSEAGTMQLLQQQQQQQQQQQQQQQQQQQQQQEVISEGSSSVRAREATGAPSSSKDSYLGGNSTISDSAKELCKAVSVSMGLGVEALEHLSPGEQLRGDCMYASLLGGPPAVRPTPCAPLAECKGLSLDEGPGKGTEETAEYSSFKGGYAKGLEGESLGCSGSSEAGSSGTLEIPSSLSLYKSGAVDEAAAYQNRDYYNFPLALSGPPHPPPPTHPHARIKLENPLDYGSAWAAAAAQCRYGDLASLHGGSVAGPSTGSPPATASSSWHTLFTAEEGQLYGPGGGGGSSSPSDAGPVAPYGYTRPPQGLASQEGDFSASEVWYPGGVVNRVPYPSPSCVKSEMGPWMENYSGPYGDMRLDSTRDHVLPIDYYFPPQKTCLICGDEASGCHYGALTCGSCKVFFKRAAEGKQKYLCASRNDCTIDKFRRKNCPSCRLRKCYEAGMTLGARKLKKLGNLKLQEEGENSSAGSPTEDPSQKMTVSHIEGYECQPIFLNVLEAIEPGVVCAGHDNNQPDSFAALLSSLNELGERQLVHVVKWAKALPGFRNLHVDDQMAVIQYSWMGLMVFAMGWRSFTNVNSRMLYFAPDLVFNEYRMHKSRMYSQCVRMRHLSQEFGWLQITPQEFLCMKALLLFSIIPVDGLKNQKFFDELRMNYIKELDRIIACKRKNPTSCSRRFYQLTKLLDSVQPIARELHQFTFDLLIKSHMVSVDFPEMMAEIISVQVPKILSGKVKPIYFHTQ
The experiment in a line: Receptor binding affinity, androgen receptor (competitive binding, 3H-metribolone). The conditions noted are these: prostate cytosol of castrated rat; for AR relative molar binding affinity (RBA) a) against RU 1881: reference RU 1881 (metribolone); for AR relative molar binding affinity (RBA) b) against dihydrotestosterone (DHT): reference dihydrotestosterone. The method, then:
(§1) The receptor binding affinity was determined by competitive binding of a specifically binding ^3H-labeled hormone (tracer) and the compound to be tested on receptors in the cytosol from animal target organs. In this case, receptor saturation and reaction equilibrium were sought.
(§2) The tracers and increasing concentrations of the compound to be tested (competitor) were co-incubated with the receptor-containing cytosol fraction at 0-4° C. over 18 hours. After separation of the unbonded tracer with carbon-dextran suspension, the receptor-bonded tracer portion was measured for each concentration, and the IC50 was determined from the concentration sequence. As a quotient of the IC50 values of the reference substance and the compound to be tested (×100%), the relative molar binding affinity (RBA) was calculated (RBA of the reference substance=100%).
Prostate cytosol of the castrated rat; prostates stored at −30° C.; buffer: TED with 10% glycerol as well as 2 μmol of triamcinolone acetonide. Tracer: ^3H-metribolone 4 nmol; reference substances: metribolone (RU 1881) or 5α-dihydrotestosterone.

Experiment [2] deals with T2, Progesterone receptor (Oryctolagus cuniculus, UniProt P06186).
T2 construct: Uterus cytosol of the estradiol-primed rabbit; from tissue; host or cells: uterus cytosol of estradiol-primed rabbit
T2 sequence (P06186 1-930): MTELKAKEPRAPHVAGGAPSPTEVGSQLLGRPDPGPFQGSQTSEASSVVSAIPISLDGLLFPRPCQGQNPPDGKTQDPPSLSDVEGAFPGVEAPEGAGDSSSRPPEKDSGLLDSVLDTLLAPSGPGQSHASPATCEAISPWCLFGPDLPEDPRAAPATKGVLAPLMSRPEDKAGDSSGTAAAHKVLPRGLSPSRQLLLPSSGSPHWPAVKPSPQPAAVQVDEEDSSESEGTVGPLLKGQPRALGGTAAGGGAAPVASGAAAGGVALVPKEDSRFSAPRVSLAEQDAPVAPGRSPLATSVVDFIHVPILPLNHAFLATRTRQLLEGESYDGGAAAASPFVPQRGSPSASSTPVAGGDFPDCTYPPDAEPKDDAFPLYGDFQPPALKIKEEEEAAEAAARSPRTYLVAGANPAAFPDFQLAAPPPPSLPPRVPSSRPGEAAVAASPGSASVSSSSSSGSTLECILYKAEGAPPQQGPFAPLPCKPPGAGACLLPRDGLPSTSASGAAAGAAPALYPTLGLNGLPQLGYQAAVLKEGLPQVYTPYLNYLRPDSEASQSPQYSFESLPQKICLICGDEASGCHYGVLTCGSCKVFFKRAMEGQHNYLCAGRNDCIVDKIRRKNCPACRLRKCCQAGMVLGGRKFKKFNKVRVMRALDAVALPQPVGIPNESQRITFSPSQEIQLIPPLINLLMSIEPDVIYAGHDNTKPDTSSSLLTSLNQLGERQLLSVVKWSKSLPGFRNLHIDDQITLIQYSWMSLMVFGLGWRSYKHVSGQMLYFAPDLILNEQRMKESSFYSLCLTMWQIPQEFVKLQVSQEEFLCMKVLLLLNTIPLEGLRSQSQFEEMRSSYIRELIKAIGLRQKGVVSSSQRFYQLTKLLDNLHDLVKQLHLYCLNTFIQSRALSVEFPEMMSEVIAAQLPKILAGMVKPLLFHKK
The experiment in a line: Receptor binding affinity, progesterone receptor (competitive binding, 3H-ORG 2058). The following applies: Progesterone = 100%; uterus cytosol of estradiol-primed rabbit. The method, then:
as §1, §2
Uterus cytosol of the estradiol-primed rabbit; homogenized in TED buffer (20 mmol of Tris/HCl, pH 7.4; 1 mmol of ethylenediamine tetraacetate, 2 mmol of dithiothreitol) with 250 mmol of saccharose; stored at −30° C. Tracer: ^3H-ORG 2058, 5 nmol; reference substance: progesterone.

Experiment [3] has as its target T3, Glucocorticoid receptor (Rattus norvegicus, UniProt P06536).
T3 construct: Thymus cytosol of the adrenalectomized rat; from tissue; host or cells: thymus cytosol of adrenalectomized rat
T3 sequence (P06536 1-795): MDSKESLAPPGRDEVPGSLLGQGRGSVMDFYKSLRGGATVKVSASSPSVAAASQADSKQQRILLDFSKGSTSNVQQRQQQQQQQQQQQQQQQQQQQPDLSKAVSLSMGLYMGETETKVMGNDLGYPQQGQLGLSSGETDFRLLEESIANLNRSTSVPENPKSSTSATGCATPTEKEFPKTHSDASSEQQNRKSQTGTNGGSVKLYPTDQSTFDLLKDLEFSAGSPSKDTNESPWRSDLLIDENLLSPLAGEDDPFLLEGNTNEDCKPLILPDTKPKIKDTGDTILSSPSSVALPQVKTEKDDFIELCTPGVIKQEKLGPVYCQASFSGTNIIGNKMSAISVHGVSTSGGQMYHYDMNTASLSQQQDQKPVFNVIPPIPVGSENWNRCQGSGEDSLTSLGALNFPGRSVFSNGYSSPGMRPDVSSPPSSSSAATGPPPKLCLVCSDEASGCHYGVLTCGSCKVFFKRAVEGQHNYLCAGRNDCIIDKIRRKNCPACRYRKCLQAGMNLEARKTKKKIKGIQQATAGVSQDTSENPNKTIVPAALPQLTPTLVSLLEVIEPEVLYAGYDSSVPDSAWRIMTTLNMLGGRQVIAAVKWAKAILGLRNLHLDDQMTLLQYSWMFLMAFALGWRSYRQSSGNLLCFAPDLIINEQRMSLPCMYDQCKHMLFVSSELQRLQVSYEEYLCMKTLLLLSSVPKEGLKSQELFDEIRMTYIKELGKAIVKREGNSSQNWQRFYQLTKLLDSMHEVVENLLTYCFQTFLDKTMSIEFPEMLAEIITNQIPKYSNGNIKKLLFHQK
The experiment in a line: Receptor binding affinity, glucocorticoid receptor (competitive binding, 3H-dexamethasone). The conditions noted are these: Dexamethasone = 100%; thymus cytosol of adrenalectomized rat. The method, then: as §1, §2
Thymus cytosol of the adrenalectomized rat, thymi stored at −30° C.; buffer: TED. Tracer: ^3H-Dexamethasone, 20 nmol; reference substance: dexamethasone.

On to “4-(4′-Bromo-17β-methoxy-3-oxoestra-4,9-dien-11β-yl)benzaldehyde-1(E)-oxime [Example 7]”, for which, in experiment [1], the “AR relative molar binding affinity (RBA) a) against RU 1881” value was “a) 8.7%” and the “AR relative molar binding affinity (RBA) b) against dihydrotestosterone (DHT)” value (“AR relative molar binding affinity … (DHT)” below) is given as “b) 13.2%”. Further, in experiment [2], the “PR relative molar binding affinity (RBA)” value came out at 110%. Besides, the “GR relative molar binding affinity (RBA)” value in experiment [3] was 0.69%.
For `CC(=O)OC1CCC2C3CCC4=CC(=O)CCC4=C3C(c3ccc(C=NO)cc3)CC12C` (stereo not drawn) [Example 3, 4-(17β-Acetoxy-3-oxoestra-4,9-dien-11β-yl)benzaldehyde-1-(E)-oxime], in experiment [2], the “PR relative molar binding affinity (RBA)” value amounted to 20%. Also, the “GR relative molar binding affinity (RBA)” value in experiment [3] is given as 12%.
Regarding `CCNC(=O)O[C@H]1CC[C@H]2[C@@H]3CCC4=CC(=O)CCC4=C3[C@@H](c3ccc(/C=N/O)cc3)C[C@]12C` [Example 4, 4-[17β-(N-Ethylamino)carbonyloxy-3-oxoestra-4,9-dien-11β-yl]benzaldehyde-1(E)-oxime], in experiment [1], the “AR relative molar binding affinity (RBA) a) against RU 1881” value is listed as “a) 2.9%” and the “AR relative molar binding affinity … (DHT)” value is reported as “b) 4.5%”. Moreover, the “PR relative molar binding affinity (RBA)” value in experiment [2] worked out at 13%. Besides, the “GR relative molar binding affinity (RBA)” value in experiment [3] was 11%.
For the compound `CC12CC(c3ccc(C=NO)cc3)C3=C4CCC(=O)C(Br)=C4CCC3C1CCC2(O)C(F)(F)F` (stereo not drawn) [Example 8, 4-(4′-Bromo-17β-hydroxy-17α-trifluoromethyl-3-oxoestra-4,9-dien-11β-yl)benzaldehyde-1(E)-oxime], in experiment [1], the “AR relative molar binding affinity (RBA) a) against RU 1881” value is given as “a) 7.8%” and the “AR relative molar binding affinity … (DHT)” value is on record as “b) 11.8%”. The “PR relative molar binding affinity (RBA)” value in experiment [2] is on record as 87%. In experiment [3], the “GR relative molar binding affinity (RBA)” value was determined as 1.8%.
The corresponding values for `CCNC(=O)O/N=C/c1ccc([C@H]2C[C@@]3(C)[C@@H](CC[C@]3(C)O)[C@@H]3CCC4=CC(=O)CCC4=C32)cc1` [Example 9, 4-[17β-Hydroxy-17α-methyl-3-oxoestra-4,9-dien-11β-yl]benzaldehyde-1-(E)-[O-(ethylamino)-carbonyl]oxime] are “a) 15%”, “b) 23%”, 161% and 25%.
For the compound `CC12CC(c3ccc(C=NO)cc3)C3=C4CCC(=O)C=C4CCC3C1CCC2(O)CBr` (stereo not drawn) [Example 10, 4-(17α-Bromomethyl-17β-hydroxy-3-oxoestra-4,9-dien-11β-yl)benzaldehyde-1(E)-oxime], in experiment [1], the “AR relative molar binding affinity (RBA) a) against RU 1881” value is listed as “a) 0.6%” and the “AR relative molar binding affinity … (DHT)” value is “b) 0.9%”. The “PR relative molar binding affinity (RBA)” value in experiment [2] was 21%. Also, the “GR relative molar binding affinity (RBA)” value in experiment [3] stood at 3%.
On to `CCNC(=O)O/N=C/c1ccc([C@H]2C[C@]3(C)[C@@H](O)CC[C@H]3[C@@H]3CCC4=CC(=O)CCC4=C32)cc1` [Example 11, 4-[17β-Hydroxy-3-oxoestra-4,9-dien-11β-yl]benzaldehyde-1-(E)-[O-(ethylamino)-carbonyl]oxime], for which, in experiment [1], the “AR relative molar binding affinity (RBA) a) against RU 1881” value is reported as “a) 10%” and the “AR relative molar binding affinity … (DHT)” value is reported as “b) 15%”. Besides, the “PR relative molar binding affinity (RBA)” value in experiment [2] worked out at 34%. The “GR relative molar binding affinity (RBA)” value in experiment [3] amounted to 10%.
The corresponding values for `CC12CC(c3ccc(C=NO)cc3)C3=C4CCC(=O)C=C4CCC3C1C=CC2O` (stereo not drawn) [Example 12, 4-(17β-Hydroxy-3-oxoestra-4,9,15-trien-11β-yl)benzaldehyde-1(E)-oxime] are “a) 22%”, “b) 34%”, 38% and 5%.
The corresponding values for `CC(=O)O[C@H]1CC[C@H]2[C@@H]3CCC4=C(Br)C(=O)CCC4=C3[C@@H](c3ccc(/C=N/O)cc3)C[C@]12C` [Example 13, 4-(17β-Acetoxy-4′-bromo-3-oxoestra-4,9-dien-11β-yl)benzaldehyde-1-(E)oxime] are “a) 6%”, “b) 10%”, 45% and 0.35%.
The corresponding values for `CC(=O)O/N=C/c1ccc([C@H]2C[C@]3(C)[C@@H](OC(C)=O)CC[C@H]3[C@@H]3CCC4=C(Br)C(=O)CCC4=C32)cc1` [Example 14, 4-(17β-Acetoxy-4′-bromo-3-oxoestra-4,9-dien-11β-yl)benzaldehyde-1-(E)-O-acetyloxime] are “a) 6%”, “b) 10%”, 23% and 0.3%.
